This is an account of results in US20030125234A1, “Alteration of protein stability” (priority 2001, published 2003).

Entries after “also recorded” stand apart in the source; their conditions may differ. Residues, ends and D or L forms follow the SMILES beside them.

Assay type in all cases: biochemical
In assay [1] the target is T1, bovine alpha-lactalbumin (Bos taurus, UniProt P00711).
T1 construct: purchased Sigma
T1 sequence (P00711 20-142): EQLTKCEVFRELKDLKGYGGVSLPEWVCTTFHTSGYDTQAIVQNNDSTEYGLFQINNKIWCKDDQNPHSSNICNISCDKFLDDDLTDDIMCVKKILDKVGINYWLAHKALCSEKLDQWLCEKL
The assay can be described thus: Alpha-lactalbumin aggregation (turbidity at 360 nm) induced by DTT. Conditions: for inhibition index: α Lactalbumin 0.4 mg/mL, 37° C., DTT, compound 1,000×, standard deviation in parenthesis. An outline of the steps: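 Bovine alpha-lactalbumin (0.4 mg/mL (2.82E-5 M)) was prepared in 50 mM sodium phosphate, 100 mM sodium chloride and 2 mM EDTA, pH 6.2. Aggregation was triggered with 20 μL of 1 M DTT […] at 37° C. and followed for 1 hour as optical density at 360 nm, compared against protein without the dipolar compound.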

The target of assay [2] is T2, chicken egg white lysozyme (Gallus gallus, UniProt P00698).
T2 construct: chicken egg white lysozyme [Sigma]; purchased Sigma; host or cells: egg white
Briefly: Lysozyme aggregation (turbidity at 360 nm) induced by DTT. The note with it: for inhibition index: Lysozyme 0.4 mg/mL, 25° C., DTT, compound 1,000×, standard deviation in parenthesis. An outline of the steps:
(§1)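 Aggregation is scored as optical density at 360 nm over 1 h relative to untreated protein. Porcine somatotropin (1.27 mg/mL) is heated to 60° C in PEG 8000 (20 mg/mL); ADH (1 mg/mL) is oxidized with 7.76E-5 M Cu(OP)2 at 37° C; lysozyme and HLF (0.4 mg/mL) are reduced with 1.27E-4 M DTT at 25° C and 43° C.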

Assay [3] deals with T3, porcine somatotropin (pST) (Sus scrofa, UniProt P01248).
T3 construct: purchased Pfizer, Inc., Groton, Conn., USA (provided, not bought)
T3 sequence (P01248 27-216): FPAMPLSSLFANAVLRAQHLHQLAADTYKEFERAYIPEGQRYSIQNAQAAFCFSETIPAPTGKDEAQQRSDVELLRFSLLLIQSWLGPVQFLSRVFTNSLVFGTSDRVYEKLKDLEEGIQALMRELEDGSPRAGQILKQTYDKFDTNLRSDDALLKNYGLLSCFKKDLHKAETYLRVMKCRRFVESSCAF
Briefly: Porcine somatotropin aggregation (turbidity at 360 nm) with PEG 8000. Conditions: pST 1.27 mg/mL, 60° C., standard deviation in parenthesis. An outline of the steps:
as §1

Assay [4] addresses human acidic fibroblast growth factor (FGF-1) (Homo sapiens, UniProt P05230). Briefly: FGF-1 thermal aggregation (turbidity at 360 nm). The note with it: for inhibition index: FGF-1 50 μg/mL, 50° C., standard deviation in parenthesis. The gist of the method:
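Heat-induced aggregation followed as OD360 for 1 h, cycled every 30 s: citrate synthase 96 μg/mL in HEPES/KCl/(NH4)2SO4 buffer pH 7.8 at 45° C; FGF-1 50 μg/mL in phosphate/NaCl pH 7.2 at 50° C. Rate taken as maximum slope of OD versus time, compared with protein without additive.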

human acidic fibroblast growth factor (FGF-1), sequence (P05230 whole entry): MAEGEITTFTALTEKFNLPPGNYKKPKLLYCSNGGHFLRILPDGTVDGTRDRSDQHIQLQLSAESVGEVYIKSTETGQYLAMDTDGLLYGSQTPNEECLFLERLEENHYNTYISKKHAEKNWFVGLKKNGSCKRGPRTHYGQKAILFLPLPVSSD
T2 sequence (P00698 19-147): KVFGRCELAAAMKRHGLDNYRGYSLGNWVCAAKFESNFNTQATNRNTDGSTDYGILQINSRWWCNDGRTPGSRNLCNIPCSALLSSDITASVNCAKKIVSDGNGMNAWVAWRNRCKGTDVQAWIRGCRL

`NCCCN` [1,3-diaminopropane]: the inhibition index is on record as 0.9 (0.3) in assay [1]; 2.7 (0.4) in assay [2]; 0.6 (0.0) in assay [3] (compound 100X); 1.7 (0.2) in assay [3] (compound 2,000X); 2.2 (0.3) in assay [4] (compound 1,000×); 3.5 (2.3) in assay [4] (compound 10,000×).
Turning to `NCCCCN` [1,4-diaminobutane], the inhibition index in assay [1] is reported as 1.0 (0.2); in assay [2], 1.6 (0.2); in assay [3] (compound 100X), 0.6 (0.1); in assay [3] (compound 2,000X), 1.4 (0.4); in assay [4] (compound 1,000×), 2.5 (1.3); in assay [4] (compound 10,000×) it was 33.7 (6.6).
Regarding `NCCCCCN` [1,5-diaminopentane], the inhibition index in assay [1] was 0.9 (0.0); in assay [2], 1.3 (0.3); in assay [3] (compound 100X), 0.8 (0.3); in assay [3] (compound 2,000X), 1.7 (0.4); in assay [4] (compound 1,000×), 3.3 (0.7); in assay [4] (compound 10,000×), 46.5 (19.8).
Turning to `NCCCCCCN` [1,6-diaminohexane], the inhibition index in assay [1] is recorded as 1.3 (0.4); in assay [2], 1.0 (0.1); in assay [3] (compound 100X), 0.6 (0.1); in assay [3] (compound 2,000X), 1.9 (0.2); in assay [4] (compound 1,000×) it was 1.6 (0.6); in assay [4] (compound 10,000×) it was 27.0 (9.8).
As for `NCCCCCCCN` [1,7-diaminoheptane], the inhibition index is 1.8 (0.7) in assay [1]; 1.0 (0.3) in assay [2]; 0.7 (0.0) in assay [3] (compound 100X); 1.6( 0.7) in assay [3] (compound 2,000X); 2.0 (0.7) in assay [4] (compound 1,000×); 6.2 (2.4) in assay [4] (compound 10,000×).
As to `NCCCC(=O)O` [4-aminobuytrate, 4-aminobutyric acid], the inhibition index in assay [1] is 2.0 (0.8); in assay [2], 1.4 (0.4); in assay [3] (compound 100X) it was 0.3 (0.0); in assay [3] (compound 2,000X), 1.1 (0.2); in assay [4] (compound 1,000×), 1.5 (0.0); in assay [4] (compound 10,000×), 1.4 (0.3).
For the compound `NCCCCC(=O)O` [5-aminovalerate, 5-aminovaleric acid], the inhibition index in assay [1] is listed as 2.1 (0.8); in assay [2] it was 1.5 (0.4); in assay [3] (compound 100X), 0.4 (0.0); in assay [3] (compound 2,000X), 0.7 (0.1); in assay [4] (compound 1,000×), 1.1 (0.2); in assay [4] (compound 10,000×), 2.2 (1.4).
Take `NCCCCCC(=O)O` [6-aminocaproate, 6-aminocaproic acid]: the inhibition index in assay [1] is 2.3 (0.6); in assay [2], 0.8 (0.2); in assay [3] (compound 100X) it was 0.5 (0.1); in assay [3] (compound 2,000X), 1.2 (0.2); in assay [4] (compound 1,000×), 2.2 (0.3); in assay [4] (compound 10,000×) it was 2.4 (0.5).
With `NCCCCCCC(=O)O` [7-aminoheptanoate, 7-aminoheptanoic acid], in assay [1], the “inhibition of α-lactalbumin aggregation, in words” value is “Potent inhibitors”. The inhibition index is 3.9 (2.1) in assay [1]; 1.3 (0.2) in assay [2]; 0.4 (0.0) in assay [3] (compound 100X); 1.6 (0.2) in assay [3] (compound 2,000X); 0.9 (0.4) in assay [4] (compound 1,000×); 1.3 (0.1) in assay [4] (compound 10,000×).
Regarding `O=C(O)CCCCC(=O)O` [adipate, adipic acid], the inhibition index in assay [1] was 1.2 (0.3); in assay [2] it was 1.4 (0.8); in assay [3] (compound 100X), 0.9 (0.1); in assay [3] (compound 2,000X), 3.9 (0.7); in assay [4] (compound 1,000×), 3.0 (0.7); in assay [4] (compound 10,000×), 5.0 (3.3).
`NCCC(=O)O` [beta-alanine]: the inhibition index in assay [1] was 2.1 (0.4); in assay [2] it was 1.1 (0.3); in assay [3] (compound 100X) it was 0.4 (0.1); in assay [3] (compound 2,000X), 0.8 (0.1); in assay [4] (compound 1,000×), 1.1 (0.2); in assay [4] (compound 10,000×) it was 1.5 (0.5).
For `NCCN` [ethylenediamine], the inhibition index in assay [1] is 0.7 (0.4); in assay [2], 70.2 (6.8); in assay [3] (compound 100X) it was 0.7 (0.0); in assay [3] (compound 2,000X) it was 1.3 (0.1); in assay [4] (compound 1,000×), 2.2 (0.7); in assay [4] (compound 10,000×), 3.3 (1.3). For the same compound, the “inhibition of lysozyme aggregation, in words” value in assay [2] is listed as “effective inhibitors; also recorded: strongly inhibited”.
Turning to `O=C(O)CCCC(=O)O` [glutarate, glutaric acid], the inhibition index in assay [1] is 1.1 (0.2); in assay [2], 1.2 (0.3); in assay [3] (compound 100X), 0.9 (0.1); in assay [3] (compound 2,000X), 3.1 (0.7); in assay [4] (compound 1,000×), 3.0 (0.9); in assay [4] (compound 10,000×), 10.8 (8.4).
`NCC(=O)O` [glycine]: the inhibition index is 1.4 (0.3) in assay [1]; 1.0 (0.2) in assay [2]; 0.4 (0.1) in assay [3] (compound 100X); 1.2 (0.2) in assay [3] (compound 2,000X); 1.3 (0.3) in assay [4] (compound 1,000×); 3.0 (1.7) in assay [4] (compound 10,000×).
Take `O=C([O-])CC(=O)[O-].[Na+].[Na+]` [malonate, sodium malonate]: the inhibition index in assay [1] is on record as 1.8 (0.1); in assay [2] it was 1.5 (0.4); in assay [3] (compound 100X), 0.9 (0.1); in assay [3] (compound 2,000X), 4.9 (0.5); in assay [4] (compound 1,000×), 2.2 (0.4); in assay [4] (compound 10,000×), 36.6 (29.0).
As to `O=C(O)C(=O)O` [oxalate, oxalic acid], the inhibition index in assay [1] is on record as 1.3 (0.2); in assay [2] it was 1.6 (1.0); in assay [3] (compound 100X), 0.8 (0.1); in assay [3] (compound 2,000X) it was 1.5 (0.3); in assay [4] (compound 1,000×), 5.2 (1.5); in assay [4] (compound 10,000×), 605.5 (89.1). Also, in assay [4] (text and FIG. 2 (1,000X to 50,000X)), the “inhibition of FGF-1 aggregation, in words” value is “effective inhibitors”.
With `O=C(O)CCCCCC(=O)O` [pimelate, pimelic acid], the inhibition index in assay [1] is on record as 1.3 (0.3); in assay [2] it was 2.0 (0.7); in assay [3] (compound 100X), 0.8 (0.1); in assay [3] (compound 2,000X), 1.5 (0.4); in assay [4] (compound 1,000×), 3.1 (1.0); in assay [4] (compound 10,000×) it was 12.1 (8.8).
As for `O=C(O)CCCCCCC(=O)O` [suberate, suberic acid], the inhibition index in assay [1] is 2.0 (0.7); in assay [2], 1.4 (0.2); in assay [3] (compound 100X), 0.7 (0.0); in assay [3] (compound 2,000X), 1.7 (0.3); in assay [4] (compound 1,000×) it was 2.3 (0.5); in assay [4] (compound 10,000×), 7.1 (5.4).
Regarding `O=C(O)CCC(=O)O` [succinate, succinic acid], the inhibition index in assay [1] is recorded as 1.1 (0.3); in assay [2] it was 1.0 (0.3); in assay [3] (compound 100X), 0.9 (0.1); in assay [3] (compound 2,000X), 2.1 (0.3); in assay [4] (compound 1,000×), 2.1 (0.4); in assay [4] (compound 10,000×), 9.2 (1.9).
For the compound `NCC(=O)NCC(=O)NCC(=O)O` [triglycine] (H-Gly-Gly-Gly-OH), the inhibition index in assay [1] is 0.9 (0.1); in assay [2], 1.6 (0.3); in assay [3] (compound 100X), 0.7 (0.0); in assay [3] (compound 2,000X), 2.5 (0.3); in assay [4] (compound 1,000×), 2.2 (1.1); in assay [4] (compound 10,000×), 3.1 (0.9).
For Glu-Glu, the inhibition index was 1.0 (0.1) in assay [1]; 1.2 (0.7) in assay [2]; 0.6 (0.1) in assay [3] (compound 100X); 1.3 (0.2) in assay [4] (compound 1,000×); 7.1 (2.7) in assay [4] (compound 10,000×).
Take pentaglycine: the “inhibition of α-lactalbumin aggregation, in words” value in assay [1] is given as “Potent inhibitors”. Also, the inhibition index is listed as 3.1 (1.2) in assay [1], 0.2 (0.1) in assay [2] and 0.7 (0.2) in assay [3] (compound 100X).
